# Measurements taken from patent publication US20080299590A1, “SHC protein-related methods and compositions” (Roger Williams Hospital, priority 2005, published 2008).
# Tested on: breast cancer patients
# Assay: Shc Test TMA study: protection by adjuvant tamoxifen or chemotherapy by Shc risk group (multivariate survival models)
# Type: in vivo, human
# Excerpt: Materials and Methods: Patient samples included primary invasive tumor specimens from 4,326 British Columbian women in Tumor Micro-Array (TMA) format (no adjuvant therapy=1860; tamoxifen=1366; chemotherapy (AC, CMF, FAC, CEF)=744; relapsed=1752; died of disease=1334, average follow-up 13 yrs). Two additional sources were 65 primary tumor specimens from tamoxifen-only-treated patients (10 recurrences, 6.4 yrs average follow-up) from Roger Williams Medical Center (RWMC), and 32 (14 recurrences) from a published study (Massachusetts General Hospital (MGH)) (Ma et al., Cancer Cell, 5:1-10 (2004)). Immunohistochemistry (IHC) staining of the Shc proteins was scored on a continuous 0-5 scale by two pathologists, blinded to patient clinical data.
# Analysis of relapse-free survival (RFS) and disease specific survival (DSS) used multivariate models under assumptions of both log-normality as well as proportionality of hazard rate.
smiles,measurement,setting,value
CC/C(=C(\c1ccccc1)c1ccc(OCCN(C)C)cc1)c1ccccc1 [tamoxifen],hazard ratio (HR) of tamoxifen therapy,"12% of patients classified as high risk by the Shc Test, node positive patients",0.26
same,benefit from tamoxifen,63% patients in the low risk group by the Shc Test,little benefit
